US20240368134A1, “AROMATIC COMPOUND, PHARMACEUTICAL COMPOSITION, AND APPLICATION THEREOF” (SHANGHAI KYGENT PHARMACEUTICAL CO., LTD, priority 2021, published 2024)

System: MSTO-211H cells
Test: Tumor cell proliferation inhibition experiment (Cell Titer Glo), MSTO-211H
Assay type: cell-based
Details: Homo sapiens, 72 h, MSTO-211H lung cancer cells, three days incubation
Procedure: (§1) Cell Titer Glo luminescent cell viability assay kit was used to quantify the ATP content in cells, so as to quantify the number of viable cells. […] On the second day, the compound was added to the 96-well plate after a three-fold serial dilution to eight concentrations, and incubated at 37° C. for three days in the 5% carbon dioxide incubator. The culture medium was treated with the addition of Cell Titer Glo luminescent cell viability assay kit (Promega G7570) reagent, incubated for 10 minutes, and then placed in Envision (Pelkin Elmer) to read the luminescence signal. DMSO was used instead of the compound as a control to calculate the inhibition rate (inhibition rate %=(1−compound signal/DMSO signal)*100), and then standard four parameter curve fitting was used to calculate the inhibitory activity IC50.

IC50 | Structure (SMILES)
0.19 µM | CNC(=O)c1cc2c(c(F)c1-c1c(Cl)c(F)cc3c1C[C@](c1ccccc1)([C@@H]1CCCN1)O3)CCC2O (stereo partly drawn) [Compound 41a]
0.15 µM | NC(=O)c1cc2c(c(F)c1-c1c(Cl)c(F)cc3c1C[C@](c1ccccc1)([C@@H]1CCCN1)O3)CCC2O (stereo partly drawn) [Compound 53a]
0.2 µM | CNC(=O)c1cc2c(c(F)c1-c1c(Cl)c(F)cc3c1C[C@](c1ccccc1)([C@@H]1CCCN1)O3)CCC2 [Compound 31a]

System: not listed separately
Test: Pharmacokinetic evaluation experiment in mice (IV and PO)
Assay type: in vivo
Details: mouse, plasma; male ICR mice, PO 30 mg/kg vs IV 5 mg/kg
Procedure: 120 healthy adult male ICR mice were selected and divided into 20 groups according to the principle of similar body weight, with 6 mice in each group of IV (10 groups) and 6 mice in each group of PO (10 groups). An appropriate amount of sample was weighed, sequentially added with an appropriate amount of DMA, Solutol, and Saline according to the volume ratio of 10:10:80, and stirred and sonicated to achieve a clarification of 1 mg/mL. After overnight fasting, mice in the IV group were intravenously administered with a volume of 5 mL/kg and a dose of 5 mg/kg, respectively; and mice in the PO group were intragastrically administered with a volume of 30 mL/kg and a dose of 30 mg/kg, respectively. Interleaved sampling was performed on every 6 mice after administration of the test compound. In the IV group, approximately 30 μL of blood was collected at 0.0833, 0.25, 0.5, 1, 2, 4, 6, 8, and 24 hours, and placed in a commercial anticoagulant tube pre-filled with EDTA-K2. In the PO group, approximately 30 μL of blood was collected at 0.25, 0.5, 1, 2, 4, 6, 8, and 24 hours, and placed in the commercial anticoagulant tube pre-filled with EDTA-K2. The tubes were centrifuged for 15 minutes to separate the plasma, and the plasma was stored at −80° C. Animals were allowed to eat 2 hours after administration. The content of the test compound in the plasma of mice after intravenous and intragastric administration was determined by LC/MS/MS method. The linear range of the method was 1.00 to 1000 ng/mL: plasma samples were analyzed after protein precipitation.

bioavailability | Structure (SMILES)
61.8% | CNC(=O)c1cc2c(c(F)c1-c1c(Cl)c(F)cc3c1C[C@](c1ccccc1)([C@@H]1CCCN1)O3)CCC2O (stereo partly drawn) [Compound 41a]
14.4% | NC(=O)c1cc2c(c(F)c1-c1c(Cl)c(F)cc3c1C[C@](c1ccccc1)([C@@H]1CCCN1)O3)CCC2O (stereo partly drawn) [Compound 53a]
44.6% | CNC(=O)c1cc2c(c(F)c1-c1c(Cl)c(F)cc3c1C[C@](c1ccccc1)([C@@H]1CCCN1)O3)CCC2 [Compound 31a]

Same assay, conditions: mouse; male ICR mice, IV 5 mg/kg, plasma

clearance | half-life | Structure (SMILES)
2.19 L/h/kg | 2.19 h | CNC(=O)c1cc2c(c(F)c1-c1c(Cl)c(F)cc3c1C[C@](c1ccccc1)([C@@H]1CCCN1)O3)CCC2O (stereo partly drawn) [Compound 41a]
2.65 L/h/kg | 4.18 h | NC(=O)c1cc2c(c(F)c1-c1c(Cl)c(F)cc3c1C[C@](c1ccccc1)([C@@H]1CCCN1)O3)CCC2O (stereo partly drawn) [Compound 53a]
1.07 L/h/kg | 3.52 h | CNC(=O)c1cc2c(c(F)c1-c1c(Cl)c(F)cc3c1C[C@](c1ccccc1)([C@@H]1CCCN1)O3)CCC2 [Compound 31a]

Same assay, conditions: mouse; male ICR mice, IV 5 mg/kg, plasma; read-out: AUC

AUC | Structure (SMILES)
2.28 µg·h/mL | CNC(=O)c1cc2c(c(F)c1-c1c(Cl)c(F)cc3c1C[C@](c1ccccc1)([C@@H]1CCCN1)O3)CCC2O (stereo partly drawn) [Compound 41a]
1.88 µg·h/mL | NC(=O)c1cc2c(c(F)c1-c1c(Cl)c(F)cc3c1C[C@](c1ccccc1)([C@@H]1CCCN1)O3)CCC2O (stereo partly drawn) [Compound 53a]
2.79 µg·h/mL | CNC(=O)c1cc2c(c(F)c1-c1c(Cl)c(F)cc3c1C[C@](c1ccccc1)([C@@H]1CCCN1)O3)CCC2 [Compound 31a]

Same assay, conditions: mouse; male ICR mice, IV 5 mg/kg, plasma; read-out: Vss

Vd | Structure (SMILES)
5.32 L/kg | CNC(=O)c1cc2c(c(F)c1-c1c(Cl)c(F)cc3c1C[C@](c1ccccc1)([C@@H]1CCCN1)O3)CCC2O (stereo partly drawn) [Compound 41a]
6.94 L/kg | NC(=O)c1cc2c(c(F)c1-c1c(Cl)c(F)cc3c1C[C@](c1ccccc1)([C@@H]1CCCN1)O3)CCC2O (stereo partly drawn) [Compound 53a]
4.44 L/kg | CNC(=O)c1cc2c(c(F)c1-c1c(Cl)c(F)cc3c1C[C@](c1ccccc1)([C@@H]1CCCN1)O3)CCC2 [Compound 31a]

Same assay, conditions: mouse; male ICR mice, PO 30 mg/kg, plasma; read-out: AUC

AUC | Structure (SMILES)
8.46 µg·h/mL | CNC(=O)c1cc2c(c(F)c1-c1c(Cl)c(F)cc3c1C[C@](c1ccccc1)([C@@H]1CCCN1)O3)CCC2O (stereo partly drawn) [Compound 41a]
1.62 µg·h/mL | NC(=O)c1cc2c(c(F)c1-c1c(Cl)c(F)cc3c1C[C@](c1ccccc1)([C@@H]1CCCN1)O3)CCC2O (stereo partly drawn) [Compound 53a]
7.47 µg·h/mL | CNC(=O)c1cc2c(c(F)c1-c1c(Cl)c(F)cc3c1C[C@](c1ccccc1)([C@@H]1CCCN1)O3)CCC2 [Compound 31a]

Same assay, conditions: mouse; male ICR mice, PO 30 mg/kg, plasma; read-out: Cmax

Cmax | Structure (SMILES)
1.27 µg/mL | CNC(=O)c1cc2c(c(F)c1-c1c(Cl)c(F)cc3c1C[C@](c1ccccc1)([C@@H]1CCCN1)O3)CCC2O (stereo partly drawn) [Compound 41a]
0.301 µg/mL | NC(=O)c1cc2c(c(F)c1-c1c(Cl)c(F)cc3c1C[C@](c1ccccc1)([C@@H]1CCCN1)O3)CCC2O (stereo partly drawn) [Compound 53a]
0.928 µg/mL | CNC(=O)c1cc2c(c(F)c1-c1c(Cl)c(F)cc3c1C[C@](c1ccccc1)([C@@H]1CCCN1)O3)CCC2 [Compound 31a]

Same assay, conditions: mouse; male ICR mice, PO 30 mg/kg, plasma; read-out: Tmax

Tmax | Structure (SMILES)
2 h | CNC(=O)c1cc2c(c(F)c1-c1c(Cl)c(F)cc3c1C[C@](c1ccccc1)([C@@H]1CCCN1)O3)CCC2O (stereo partly drawn) [Compound 41a]
0.5 h | NC(=O)c1cc2c(c(F)c1-c1c(Cl)c(F)cc3c1C[C@](c1ccccc1)([C@@H]1CCCN1)O3)CCC2O (stereo partly drawn) [Compound 53a]
1 h | CNC(=O)c1cc2c(c(F)c1-c1c(Cl)c(F)cc3c1C[C@](c1ccccc1)([C@@H]1CCCN1)O3)CCC2 [Compound 31a]

System: NCI-H2052 cells
Test: Tumor cell proliferation inhibition experiment (Cell Titer Glo), NCI-H2052
Assay type: cell-based
Details: Homo sapiens, 72 h, NCI-H2052 lung cancer cells, three days incubation
Procedure: as §1

IC50 | Structure (SMILES)
0.42 µM | CNC(=O)c1cc2c(c(F)c1-c1c(Cl)c(F)cc3c1C[C@](c1ccccc1)([C@@H]1CCCN1)O3)CCC2O (stereo partly drawn) [Compound 41a]
0.16 µM | NC(=O)c1cc2c(c(F)c1-c1c(Cl)c(F)cc3c1C[C@](c1ccccc1)([C@@H]1CCCN1)O3)CCC2O (stereo partly drawn) [Compound 53a]
0.25 µM | CNC(=O)c1cc2c(c(F)c1-c1c(Cl)c(F)cc3c1C[C@](c1ccccc1)([C@@H]1CCCN1)O3)CCC2 [Compound 31a]
